In the NIST ThermoML archive (doi:10.1021/je7002836):

Tests used:
[1] = xn = mol fraction of the nth substance listed; conditions: 101 kPa, Liquid
[2] = molar heat capacity at constant pressure; xn = mol fraction of the nth substance listed; conditions: 101 kPa, Liquid

CCCC[n+]1cccc(C)c1.F[B-](F)(F)F [1-butyl-3-methylpyridinium tetrafluoroborate] + O
Conditions | mass density, [1] [kg/m3] | molar heat capacity at constant pressure, [2] [J/K/mol]
293.15 K, x1 = 0.0015 | – | 76.7
293.15 K, x1 = 0.002 | – | 77.4
293.15 K, x1 = 0.0027 | – | 77.7
293.15 K, x1 = 0.0036 | – | 78.1
293.15 K, x1 = 0.0102 | – | 81
293.15 K, x1 = 0.0494 | 1066 | –
293.15 K, x1 = 0.0938 | – | 112.7
293.15 K, x1 = 0.0973 | 1095.9 | –
293.15 K, x1 = 0.1885 | – | 142.4
293.15 K, x1 = 0.2312 | 1139.7 | –
293.15 K, x1 = 0.2704 | – | 167
293.15 K, x1 = 0.3559 | 1157.3 | –
293.15 K, x1 = 0.362 | – | 193.8
293.15 K, x1 = 0.4035 | 1161.8 | –
293.15 K, x1 = 0.4454 | – | 218.2
293.15 K, x1 = 0.5195 | 1167.9 | –
293.15 K, x1 = 0.6432 | – | 275.2
293.15 K, x1 = 0.7087 | 1179.5 | –
293.15 K, x1 = 0.7512 | 1181.2 | –
293.15 K, x1 = 0.8094 | – | 325.2
293.15 K, x1 = 0.8791 | – | 346
293.15 K, x1 = 0.8838 | 1183.2 | –
293.15 K, x1 = 0.9468 | – | 367.8
293.15 K, x1 = 1 | 1188.6 | 385.8
298.15 K, x1 = 0.0015 | – | 76.7
298.15 K, x1 = 0.002 | – | 77.4
298.15 K, x1 = 0.0027 | – | 77.7
298.15 K, x1 = 0.0036 | – | 78.2
298.15 K, x1 = 0.0102 | – | 81.1
298.15 K, x1 = 0.0494 | 1063.3 | –
298.15 K, x1 = 0.0938 | – | 113.1
298.15 K, x1 = 0.0973 | 1092.7 | –
298.15 K, x1 = 0.1885 | – | 143.1
298.15 K, x1 = 0.2312 | 1136 | –
298.15 K, x1 = 0.2704 | – | 167.8
298.15 K, x1 = 0.3559 | 1153.6 | –
298.15 K, x1 = 0.362 | – | 195
298.15 K, x1 = 0.4035 | 1158.2 | –
298.15 K, x1 = 0.4454 | – | 219.3
298.15 K, x1 = 0.5195 | 1164.3 | –
298.15 K, x1 = 0.6432 | – | 276.9
298.15 K, x1 = 0.7087 | 1176 | –
298.15 K, x1 = 0.7512 | 1177.8 | –
298.15 K, x1 = 0.8094 | – | 327.3
298.15 K, x1 = 0.8791 | – | 348.3
298.15 K, x1 = 0.8838 | 1179.8 | –
298.15 K, x1 = 0.9468 | – | 370.4
298.15 K, x1 = 1 | 1185.2 | 387.7
303.15 K, x1 = 0.0015 | – | 76.8
303.15 K, x1 = 0.002 | – | 77.5
303.15 K, x1 = 0.0027 | – | 77.7
303.15 K, x1 = 0.0036 | – | 78.2
303.15 K, x1 = 0.0102 | – | 81.2
303.15 K, x1 = 0.0494 | 1060.4 | –
303.15 K, x1 = 0.0938 | – | 113.4
303.15 K, x1 = 0.0973 | 1089.4 | –
303.15 K, x1 = 0.1885 | – | 143.8
303.15 K, x1 = 0.2312 | 1132.3 | –
303.15 K, x1 = 0.2704 | – | 168.6
303.15 K, x1 = 0.3559 | 1150 | –
303.15 K, x1 = 0.362 | – | 196.1
303.15 K, x1 = 0.4035 | 1154.5 | –
303.15 K, x1 = 0.4454 | – | 220.5
303.15 K, x1 = 0.5195 | 1160.8 | –
303.15 K, x1 = 0.6432 | – | 278.6
303.15 K, x1 = 0.7087 | 1172.5 | –
303.15 K, x1 = 0.7512 | 1174.3 | –
303.15 K, x1 = 0.8094 | – | 329.5
303.15 K, x1 = 0.8791 | – | 350.8
303.15 K, x1 = 0.8838 | 1176.3 | –
303.15 K, x1 = 0.9468 | – | 373
303.15 K, x1 = 1 | 1181.7 | 390.1
308.15 K, x1 = 0.0015 | – | 76.9
308.15 K, x1 = 0.002 | – | 77.6
308.15 K, x1 = 0.0027 | – | 77.8
308.15 K, x1 = 0.0036 | – | 78.3
308.15 K, x1 = 0.0102 | – | 81.3
308.15 K, x1 = 0.0494 | 1057.5 | –
308.15 K, x1 = 0.0938 | – | 113.8
308.15 K, x1 = 0.0973 | 1086 | –
308.15 K, x1 = 0.1885 | – | 144.5
308.15 K, x1 = 0.2312 | 1128.7 | –
308.15 K, x1 = 0.2704 | – | 169.5
308.15 K, x1 = 0.3559 | 1146.4 | –
308.15 K, x1 = 0.362 | – | 197.3
308.15 K, x1 = 0.4035 | 1150.9 | –
308.15 K, x1 = 0.4454 | – | 221.7
308.15 K, x1 = 0.5195 | 1157.2 | –
308.15 K, x1 = 0.6432 | – | 280.3
308.15 K, x1 = 0.7087 | 1169.1 | –
308.15 K, x1 = 0.7512 | 1170.8 | –
308.15 K, x1 = 0.8094 | – | 331.7
308.15 K, x1 = 0.8791 | – | 353.3
308.15 K, x1 = 0.8838 | 1172.9 | –
308.15 K, x1 = 0.9468 | – | 375.7
308.15 K, x1 = 1 | 1178.3 | 392.8
313.15 K, x1 = 0.0015 | – | 77
313.15 K, x1 = 0.002 | – | 77.6
313.15 K, x1 = 0.0027 | – | 77.9
313.15 K, x1 = 0.0036 | – | 78.4
313.15 K, x1 = 0.0102 | – | 81.5
313.15 K, x1 = 0.0494 | 1054.5 | –
313.15 K, x1 = 0.0938 | – | 114.2
313.15 K, x1 = 0.0973 | 1082.5 | –
313.15 K, x1 = 0.1885 | – | 145.2
313.15 K, x1 = 0.2312 | 1125 | –
313.15 K, x1 = 0.2704 | – | 170.4
313.15 K, x1 = 0.3559 | 1142.7 | –
313.15 K, x1 = 0.362 | – | 198.4
313.15 K, x1 = 0.4035 | 1147.3 | –
313.15 K, x1 = 0.4454 | – | 222.8
313.15 K, x1 = 0.5195 | 1153.7 | –
313.15 K, x1 = 0.6432 | – | 282.1
313.15 K, x1 = 0.7087 | 1165.6 | –
313.15 K, x1 = 0.7512 | 1167.4 | –
313.15 K, x1 = 0.8094 | – | 334
313.15 K, x1 = 0.8791 | – | 355.8
313.15 K, x1 = 0.8838 | 1169.5 | –
313.15 K, x1 = 0.9468 | – | 378.4
313.15 K, x1 = 1 | 1174.9 | 395.9
318.15 K, x1 = 0.0015 | – | 77.1
318.15 K, x1 = 0.002 | – | 77.7
318.15 K, x1 = 0.0027 | – | 78
318.15 K, x1 = 0.0036 | – | 78.4
318.15 K, x1 = 0.0102 | – | 81.7
318.15 K, x1 = 0.0494 | 1051.3 | –
318.15 K, x1 = 0.0938 | – | 114.7
318.15 K, x1 = 0.0973 | 1079 | –
318.15 K, x1 = 0.1885 | – | 146
318.15 K, x1 = 0.2312 | 1121.2 | –
318.15 K, x1 = 0.2704 | – | 171.4
318.15 K, x1 = 0.3559 | 1139.1 | –
318.15 K, x1 = 0.362 | – | 199.5
318.15 K, x1 = 0.4035 | 1143.7 | –
318.15 K, x1 = 0.4454 | – | 224
318.15 K, x1 = 0.5195 | 1150.2 | –
318.15 K, x1 = 0.6432 | – | 283.8
318.15 K, x1 = 0.7087 | 1162.2 | –
318.15 K, x1 = 0.7512 | 1163.9 | –
318.15 K, x1 = 0.8094 | – | 336.3
318.15 K, x1 = 0.8791 | – | 358.5
318.15 K, x1 = 0.8838 | 1166.1 | –
318.15 K, x1 = 0.9468 | – | 381.3
318.15 K, x1 = 1 | 1171.6 | 399.3
